Assay [1] relates to CT26.CL25 cell line. Briefly: CT26.CL25 tumor model in immunodeficient nude mice. The assay is classed as in vivo. The settings on record: 10 mg/kg intravenous. The procedure:
Specifically, immunodeficient nude mice were subcutaneously injected with 1×10^6 cells of CT26.CL25 cell line in order to induce cancer. After the 11 days from the injection of the cancer cells, tumor size was 50-100 mm^3, and Y27632 was administered at a dose of 10 mg/kg continuously for two consecutive days by intravenous injection, followed by a day of rest as a cycle, followed by 3 cycles of 3-day intervals (FIG. 9A). As a negative control group, only phosphate buffered saline (PBS) was administered. The tumor tissues were excised and an ex vivo image was taken. In addition, before the mice were sacrificed, the change in body weight was measured at intervals of 3 days from the 11th day of cancer cell injection in the case of CT26.CL25 cancer model, and the length (L) and width (W) were measured, and the volume of the tumor tissues was measured using the equation described in Example 2-1 (FIG. 9B).

Assay [2] deals with bone marrow-derived dendritic cells (BMDCs). In words: Phagocytosis of cancer cells by bone marrow-derived dendritic cells in vitro. It counts as cell-based, mice. As to the method: Specifically, the present inventors prepared bone marrow-derived macrophages (BMDMs) differentiated from excised bone marrow of mice using M-CSF and bone marrow-derived dendritic cells (BMDCs) differentiated from excised bone marrow using Flt3L. The degree of differentiation was confirmed by flow cytometry analysis using antibodies specifically binding to F4/80 (BMDM marker) and CD11c (BMDC marker), respectively (FIGS. 2A and 2B).
The prepared BMDMs and BMDCs were stained with 1 μM CellTracker Deep Red (Thermo Fisher Scientific, USA). 30 μM of Y27632 (Abcam, USA) or 30 μM of fasudil (Selleck Chemicals, USA) was added to each of 15×10^4 cells/ml of the stained macrophages and dendritic cells and incubated at 37° C. for 1 hour. As a negative control, macrophages or dendritic cells that were not incubated with Y27632 and fasudil were used.
Bone marrow-derived macrophages or dendritic cells prepared in RPMI medium and cancer cell lines stained with 1 μM CellTracker CMFDA (Thermo Fisher Scientific, USA) were co-cultured at about 37° C. for about 2 hours. CT26.CL25, a colon cancer cell line, and B16F10-OVA, a melanoma cell line, were used as the cancer cells.
Thereafter, the percentage of cancer cells was measured by flow cytometry, and the phagocytosis ratio of macrophages and dendritic cells against cancer cells was calculated. The results are shown in FIGS. 2C to 2F (left: cancer cell line CT26.CL25, right: cancer cell line B16F10-OVA).
In order to more accurately analyze the phagocytosis of macrophages and dendritic cells against cancer cells according to the treatment of the ROCK inhibitor, the present inventors analyzed phagocytosis of the BMDMs and BMDCs against CT26.CL25 colon cancer cells using the pHrodo-SE dye, which changes in fluorescence depending on pH. When […], the pH of the cancer cells decreased and became red. When treated with Y27632 as described above for the above-mentioned phagocytosis response, the phagocytic activities of both the BMDMs and BMDCs against cancer cells were improved.
The present inventors performed an experiment to confirm how long the phagocytosis of BMDMs and BMDCs against cancer cells due to the ROCK inhibitor is maintained. Specifically, BMDMs and BMDCs were pretreated with Y27632 for 1 hour, then Y27632 was removed, and immediately after 30 minutes, 1 hour, 2 hours, or 4 hours, the phagocytosis against CT26.CL25 and B16F10-Ova was measured using a flow cytometer. The other experimental conditions were the same as in Example 1-1.
In order to confirm whether the ROCK inhibitor increases phagocytosis against cancer cells by acting on phagocytic cells (BMDMs or BMDCs) themselves, Y27632 was used to pretreat the phagocytic cells or cancer cells for 1 hour, and the phagocytic activity was analyzed using the same procedure described in Example 1-1. […]
Phagocytic activity of bone marrow-derived dendritic cells (BMDCs) differentiated from bone marrow cells against cancer cells was analyzed by treating the BMDCs with ROCK inhibitor Y27632 (30 μM) for 1 hour and then co-cultivating with CT26.CL25 colon cancer cells pretreated with 25 μM of doxorubicin for 24 hours or B16F10-Ova malignant melanoma cells treated with 30 μM of Y27632 for 1 hour and then treated with 2.5 μM doxorubicin (Sigma-Aldrich, USA) for 24 hours by pHrodo SE (Thermo Fisher Scientific, USA) staining (BMDC:Dox-treated B16F10-Ova=1:1). As shown in FIGS. 16A to 16D, it was confirmed that the phagocytic activity of BMDCs induced by doxorubicin were increased in the Y27632-treated group compared to the control group (FIGS. 16A to 16D). […]

With `C[C@@H](N)[C@H]1CC[C@H](C(=O)Nc2ccncc2)CC1` [Y27632], the “anti-cancer effect (tumor volume) in nude mice lacking immune function” value in assay [1] is given as “only a limited anti-cancer effect”. In addition, the “phagocytic activity of BMDCs against doxorubicin-treated cancer cells” value in assay [2] (30 μM, 1 hour, CT26.CL25 (25 μM doxorubicin) or B16F10-Ova (2.5 μM doxorubicin), 24 hours) was “increased”. In addition, in assay [2] (30 μM, 1 hour, co-culture with CT26.CL25 or B16F10-OVA about 2 hours), the “phagocytic ability of dendritic cells against cancer cells” value is “significantly increased”. Besides, the “phagocytic activity of BMDCs against cancer cells (pHrodo-SE dye)” value in assay [2] (CT26.CL25 colon cancer cells) is “improved”. The “phagocytosis by BMDCs against cancer cells, cancer cells pre-treated” value in assay [2] (cancer cells pretreated for 1 hour) is “not increased”. In assay [2] (phagocytic cells pretreated for 1 hour), the “phagocytosis against cancer cells, BMDCs pretreated” value was “increased”. The “time for which BMDCs maintain phagocytosis after the pretreatment” value in assay [2] (pretreated 1 hour, then removed, CT26.CL25 and B16F10-Ova) is not above 1 h.

The record behind these values is US20190328721A1, “METHOD OF ACTIVATING DENDRITIC CELLS” (KOREA INSTITUTE OF SCIENCE AND TECHNOLOGY, priority 2018, published 2019).
